Measurements published in US12649733B2, “3,6-diamino-pyridazin-3-yl derivatives, pharmaceutical compositions containing them and their uses as pro-apoptotic agents” (LES LABORATOIRES SERVIER, priority 2019, dated 2026).

Assays:
BCLXL = BCLXL (Homo sapiens, UniProt Q07817, V10N/V9A); assay: Fluorescence polarisation assay (PUMA-based probe displacement); assay type: binding; note: 20 nM protein, 10 nM fluorescent probe
Protocol: Fluorescence polarization measures the rotation of a fluorescing species in solution, the larger the molecule the more polarized the fluorescence emission.
[[…]] (GST UniProtKB® primary accession number P08515 and BCLXL UniProtKB® primary accession number Q07817-1),
resulting in an increase in anisotropy. If a compound is added which competitively binds to the same site as the probe, thereby releasing it, anisotropy decreases due to the increased amount of free probe.
An 11-point serial dilution of each compound was prepared in DMSO, the final buffer conditions were 10 mM 4-(2-hydroxyethyl)-1-piperazineethanesulfonic acid [HEPES], 150 mM NaCl, 0.05% Tween 20, pH 7.4 and 5% DMSO. The final protein concentration in the assay was 20 nM with the fluorescent probe present at 10 nM. The experiments were incubated for 2 hours at 23° C. before fluorescence polarization was measured on a Biotek SynergyNeo plate reader (Excitation 485 nm, emission 525 nm, parallel and perpendicular reads). […] The KI values were determined from the IC50 values according to Cer et al, Nucleic Acids Res, 2009, Jul. 1: 37(WebServer issue): W441-W445.

H146 cells = assay: H146 cell viability, MTT assay; assay type: cell-based; conditions: Homo sapiens, NCI-H146, 48 h, 48 h exposure
Protocol: (§1) MTT colorimetric assay is based on the mitochondrial reduction of tetrazolium salt by living cells. The viable cell number is proportional to the production of formazan salts, which can be read spectrophotometrically at 540 nm.
(§2) MOLT-4 and H146 cells were purchased from ATCC and cultivated in RPMI 1640 supplemented with 10% heat inactivated fetal bovine serum, penicillin (100 IU/ml), streptomycin (100 μg/ml) and L-glutamine (2 mM). Cells were cultured at 37° C. in a humidified atmosphere containing 5% CO2. Cells were seeded in 96 microwell plates (150 μL per well) and exposed to the compounds for 48 h (3.16 fold serially diluted; 9 concentrations each, triplicates). At the end of incubation time, 15 μL of MTT solution (5 mg/ml) were added per well and the cells were incubated for another 4 h. Then, 100 μL of 10% Sodium Dodecyl Sulfate (SDS)/HCl 10 mM were added per well and the plate was incubated overnight, before measurement of optical density at 540 nm. IC50s were calculated using standard four-parametric curve fitting.

MOLT-4 cells = assay: MOLT-4 cell viability, MTT assay; assay type: cell-based; conditions: Homo sapiens, MOLT-4, 48 h, 48 h exposure
Protocol: as §1, §2

Chain of BCLXL (Q07817 with tags, fused parts or gaps V9A/V10N): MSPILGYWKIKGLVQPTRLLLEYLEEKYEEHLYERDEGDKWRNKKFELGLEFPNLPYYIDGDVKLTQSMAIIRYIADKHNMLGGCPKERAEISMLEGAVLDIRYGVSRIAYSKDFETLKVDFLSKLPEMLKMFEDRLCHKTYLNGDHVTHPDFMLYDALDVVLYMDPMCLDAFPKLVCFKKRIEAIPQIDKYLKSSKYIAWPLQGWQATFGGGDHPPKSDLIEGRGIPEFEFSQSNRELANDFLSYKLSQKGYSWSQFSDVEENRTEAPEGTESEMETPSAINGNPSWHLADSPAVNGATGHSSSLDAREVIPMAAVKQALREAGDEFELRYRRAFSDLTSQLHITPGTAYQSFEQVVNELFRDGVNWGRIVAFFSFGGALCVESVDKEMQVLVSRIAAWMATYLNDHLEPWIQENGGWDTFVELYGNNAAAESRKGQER

| Ki (BCLXL) | IC50 (H146 cells) | IC50 (MOLT-4 cells) | Structure (SMILES) |
| --- | --- | --- | --- |
| 0.014 µM | ≥ 11.8 µM | 11.7 µM | CCCN(c1cc(C)c(Nc2nc3ccccc3s2)nn1)c1nc(C(=O)O)cs1 [Example 45, 2-({6-[(1,3-Benzothiazol-2-yl)amino]-5-methylpyridazin-3-yl}(propyl)amino)-1,3-thiazole-4-carboxylic acid] |
| 0.19 µM | > 15 µM | > 15 µM | CCN(CC)CCCN(c1cc(C)c(Nc2nc3ccccc3s2)nn1)c1nc(C(=O)O)cs1 [Example 46, 2-({6-[(1,3-Benzothiazol-2-yl)amino]-5-methylpyridazin-3-yl}[3-(diethylamino)propyl]amino)-1,3-thiazole-4-carboxylic acid] |
| 0.023 µM | ≥ 9.62 µM | > 15 µM | COCCCN(c1cc(C)c(Nc2nc3ccccc3s2)nn1)c1nc(C(=O)O)cs1 [Example 47, 2-({6-[(1,3-Benzothiazol-2-yl)amino]-5-methylpyridazin-3-yl}(3-methoxypropyl)amino)-1,3-thiazole-4-carboxylic acid] |
| 0.0081 µM | > 15 µM | > 15 µM | Cc1cc(N(CCCO)c2nc(C(=O)O)cs2)nnc1Nc1nc2ccccc2s1 [Example 49, 2-({6-[(1,3-Benzothiazol-2-yl)amino]-5-methylpyridazin-3-yl}(3-hydroxypropyl)amino)-1,3-thiazole-4-carboxylic acid] |
| 0.09 µM | 13 µM | 8.36 µM | COCCCN(c1cc(C)c(Nc2nc3ccccc3s2)nn1)c1nc(C(=O)O)c(-c2cnn(CC34CC5CC(CC(C5)C3)C4)c2C)s1 [Example 52, 5-{1-[(Adamantan-1-yl)methyl]-5-methyl-1H-pyrazol-4-yl}-2-({6-[(1,3-benzothiazol-2-yl)amino]-5-methylpyridazin-3-yl}(3-methoxypropyl)amino)-1,3-thiazole-4-carboxylic acid] |
| 0.015 µM | 1.65 µM | 0.701 µM | Cc1c(-c2sc(N(C)c3cc(C4CC4)c(Nc4nc5ccccc5s4)nn3)nc2C(=O)O)cnn1CC12CC3CC(CC(C3)C1)C2 [Example 53, 5-{1-[(Adamantan-1-yl)methyl]-5-methyl-1H-pyrazol-4-yl}-2-({6-[(1,3-benzothiazol-2-yl)amino]-5-cyclopropylpyridazin-3-yl}(methyl)amino)-1,3-thiazole-4-carboxylic acid] |
| > 10 µM | > 15 µM | > 15 µM | Cc1cc(N(C)c2ccc(C(=O)O)s2)nnc1Nc1nc2ccccc2s1 [Example 56, 5-({6-[(1,3-Benzothiazol-2-yl)amino]-5-methylpyridazin-3-yl}(methyl)amino)thiophene-2-carboxylic acid] |
| 0.35 µM | 13.4 µM | > 15 µM | Cc1c(Nc2nc(C(=O)O)cs2)nnc(Nc2nc3cc(F)c(F)cc3s2)c1C [Example 57, 2-[[6-[(5,6-Difluoro-1,3-benzothiazol-2-yl)amino]-4,5-dimethyl-pyridazin-3-yl]amino]thiazole-4-carboxylic acid] |
| 0.049 µM | > 15 µM | > 15 µM | Cc1c(Nc2nc(C(=O)O)cs2)nnc(Nc2nc3cc(F)ccc3s2)c1C [Example 58, 2-[[6-[(5-Fluoro-1,3-benzothiazol-2-yl)amino]-4,5-dimethyl-pyridazin-3-yl]amino]thiazole-4-carboxylic acid] |
| < 0.001 µM | 0.593 µM | 0.192 µM | Cc1cc(N(C)c2nc(C(=O)O)c(CCCOC3CCCCC3)s2)nnc1Nc1nc2ccccc2s1 [Example 61, 2-({6-[(1,3-Benzothiazol-2-yl)amino]-5-methylpyridazin-3-yl}(methyl)amino)-5-[3-(cyclohexyloxy)propyl]-1,3-thiazole-4-carboxylic acid] |

Second part, the compound before the results:

| Structure (SMILES) | Ki (BCLXL) | IC50 (H146 cells) | IC50 (MOLT-4 cells) |
| --- | --- | --- | --- |
| Cc1c(-c2sc(Nc3ccc(Nc4nc5ccccc5s4)nn3)nc2C(=O)O)cnn1CC12CC3CC(CC(C3)C1)C2 [Example 32, 5-{1-[(Adamantan-1-yl)methyl]-5-methyl-1H-pyrazol-4-yl}-2-({6-[(1,3-benzothiazol-2-yl)amino]pyridazin-3-yl}amino)-1,3-thiazole-4-carboxylic acid] | 0.26 µM | ≥ 7.42 µM | 13.3 µM |
| Cc1c(Nc2nc(C(=O)O)c(-c3cnn(CC45CC6CC(CC(C6)C4)C5)c3C)s2)nnc(Nc2nc3ccccc3s2)c1C [Example 33, 5-{1-[(Adamantan-1-yl)methyl]-5-methyl-1H-pyrazol-4-yl}-2-({6-[(1,3-benzothiazol-2-yl)amino]-4,5-dimethylpyridazin-3-yl}amino)-1,3-thiazole-4-carboxylic acid] | 0.064 µM | 4.37 µM | 6.25 µM |
| CC(C)c1cc(N(C)c2nc(C(=O)O)cs2)nnc1Nc1nc2ccccc2s1 [Example 34, 2-({6-[(1,3-Benzothiazol-2-yl)amino]-5-(propan-2-yl)pyridazin-3-yl}(methyl)amino)-1,3-thiazole-4-carboxylic acid] | 0.0089 µM | 5.32 µM | 3.89 µM |
| COCCCC1(Cn2ncc(-c3sc(Nc4nnc(Nc5nc6ccccc6s5)c(C)c4C)nc3C(=O)O)c2C)CCCCCCC1 [Example 35, 2-({6-[(1,3-Benzothiazol-2-yl)amino]-4,5-dimethylpyridazin-3-yl}amino)-5-(1-{[1-(3-methoxypropyl)cyclooctyl]methyl}-5-methyl-1H-pyrazol-4-yl)-1,3-thiazole-4-carboxylic acid] | 0.059 µM | 2.33 µM | 3.7 µM |
| COCCCC1(Cn2ncc(-c3sc(Nc4nnc(Nc5nc6ccccc6s5)c(C)c4C)nc3C(=O)O)c2C)CCCCC1 [Example 36, 2-({6-[(1,3-benzothiazol-2-yl)amino]-4,5-dimethylpyridazin-3-yl}amino)-5-(1-{[1-(3-methoxypropyl)cyclohexyl]methyl}-5-methyl-1H-pyrazol-4-yl)-1,3-thiazole-4-carboxylic acid] | 0.028 µM | 1.99 µM | 3.47 µM |
| CCN(c1cc(C)c(Nc2nc3ccccc3s2)nn1)c1nc(C(=O)O)cs1 [Example 37, 2-({6-[(1,3-Benzothiazol-2-yl)amino]-5-methylpyridazin-3-yl}(ethyl)amino)-1,3-thiazole-4-carboxylic acid] | 0.015 µM | 11 µM | 7.39 µM |
| CN(c1ccc(Nc2nc3ccccc3s2)nn1)c1cccc(C(=O)O)n1 [Example 38, 6-({6-[(1,3-Benzothiazol-2-yl)amino]pyridazin-3-yl}(methyl)amino)pyridine-2-carboxylic acid] | 250 µM | > 15 µM | > 15 µM |
| COCCN(c1cc(C)c(Nc2nc3ccccc3s2)nn1)c1nc(C(=O)O)cs1 [Example 39, 2-({6-[(1,3-Benzothiazol-2-yl)amino]-5-methylpyridazin-3-yl}(2-methoxyethyl)amino)-1,3-thiazole-4-carboxylic acid] | 0.054 µM | > 15 µM | > 15 µM |
| Cc1cc(N(C)c2nc(C(=O)O)c(-c3cnn(CC45CC6CC(CC(C6)C4)C5)c3C)s2)nnc1Nc1nc2ccccc2s1 [Example 40, 5-{1-[(Adamantan-1-yl)methyl]-5-methyl-1H-pyrazol-4-yl}-2-({6-[(1,3-benzothiazol-2-yl)amino]-5-methylpyridazin-3-yl}(methyl)amino)-1,3-thiazole-4-carboxylic acid] | 0.02 µM | 3.8 µM | 1.49 µM |
| Cc1cc(N(CCN2CCOCC2)c2nc(C(=O)O)cs2)nnc1Nc1nc2ccccc2s1 [Example 41, 2-({6-[(1,3-Benzothiazol-2-yl)amino]-5-methylpyridazin-3-yl}[2-(morpholin-4-yl)ethyl]amino)-1,3-thiazole-4-carboxylic acid] | 0.037 µM | ≥ 9.76 µM | > 13 µM |
| COCCCC1(Cn2ncc(-c3sc(N(C)c4cc(C)c(Nc5nc6ccccc6s5)nn4)nc3C(=O)O)c2C)CCCCC1 [Example 42, 2-({6-[(1,3-Benzothiazol-2-yl)amino]-5-methylpyridazin-3-yl}(methyl)amino)-5-(1-{[1-(3-methoxypropyl)cyclohexyl]methyl}-5-methyl-1H-pyrazol-4-yl)-1,3-thiazole-4-carboxylic acid] | 0.0047 µM | 2.04 µM | 1.02 µM |
| Cc1cc(N(CCCN2CCOCC2)c2nc(C(=O)O)cs2)nnc1Nc1nc2ccccc2s1 [Example 44, 2-({6-[(1,3-Benzothiazol-2-yl)amino]-5-methylpyridazin-3-yl}[3-(morpholin-4-yl)propyl]amino)-1,3-thiazole-4-carboxylic acid] | 0.069 µM | > 15 µM | > 15 µM |
